Assay results from patent US20250171400A1, “AZA-HETEROCYCLYL CARBOXAMIDE AND RELATED COMPOUNDS AND THEIR USE IN TREATING MEDICAL CONDITIONS” (X-BIOTIX THERAPEUTICS, INC., priority 2021, published 2025).
In brackets after ≈: the same amount, converted by molar mass. Where two headings read alike, the source gives them in different places.

What was measured:
E. coli LpxC = E. coli LpxC (Escherichia coli (strain K12), UniProt P0A725); test: in vitro substrate deacetylation assay for inhibition of LpxC (ADDA analysis); type: biochemical; conditions: 5 nM E. coli LpxC, 2.5 μM substrate, 1 hour at room temperature
Sequence of E. coli LpxC (P0A725 whole entry): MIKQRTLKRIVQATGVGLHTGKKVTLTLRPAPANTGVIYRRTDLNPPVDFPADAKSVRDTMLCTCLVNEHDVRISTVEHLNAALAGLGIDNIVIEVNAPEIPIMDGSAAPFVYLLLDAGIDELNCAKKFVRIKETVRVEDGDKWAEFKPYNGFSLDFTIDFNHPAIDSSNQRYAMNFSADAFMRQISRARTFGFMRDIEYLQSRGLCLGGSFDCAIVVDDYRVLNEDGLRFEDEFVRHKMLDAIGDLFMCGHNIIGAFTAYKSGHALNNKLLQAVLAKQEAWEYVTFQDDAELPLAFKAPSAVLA
Description: (§1) Exemplary compounds from the above Examples were tested for ability to inhibit LpxC activity using an in vitro substrate deacetylation assay with ADDA™ analysis. Assay procedures and results are described below.
Dilutions of test compound were pre-incubated with 5 nM P. aeruginosa or E. coli LpxC for 10 minutes at room temperature in 50 mM NaH2PO4, 500 mM sucrose, 0.2 mg/mL BSA, pH 7.2 and <1% DMSO. Reactions were initiated by the addition of 2× substrate (UDP-3-O—(R-3-hydroxydecanoyl)-N-acetylglucosamine, Carbosynth Ltd, UK, for P. aeruginosa LpxC and UDP-3-O—(R-3-hydroxymyristoyl)-N-acetylglucosamine, BOC Sciences, USA, for E. coli LpxC), in 50 mM NaH2PO4, 0.5 mg/mL BSA, pH 7.2, to a final concentration of 2.5 μM. Reactions proceeded for 1 hour at room temperature prior to quenching with and equal volume of 2% acetic acid.
For ADDA™ analysis, an aliquot of assay sample was withdrawn from each well of the 384-well plate and applied to a Hypercarb cartridge (Optimize Technologies, USA) under conditions designed to retain analytes of interest. Analytes were eluted using 1:1:2 acetone:acetonitrile:water containing 5 mM ammonium acetate then analysed by triple-quadrupole mass spectrometry. Mass spectrometry was carried out using electrospray ionization in negative ion mode. Daughter ion peaks representing detected substrate (P. aeruginosa: parent Q1 mass=775.8 amu, daughter Q3 mass=384.7 amu E. coli: parent Q1 mass=833.0 amu, daughter Q3 mass=385.0 amu, collision energy=analyte specific, dwell time=50 ms) were identified using a multiple-reaction monitoring protocol.
Total activity (0% inhibition) was obtained from reactions containing no compound, and 100% inhibition is defined as reactions in the presence of 1 μM CHIR-090 (N-[(1S,2R)-2-hydroxy-1-[(hydroxyamino)carbonyl]propyl]-4-[2-[4-(4-morpholinylmethyl)phenyl]ethynyl]-benzamide). For IC50 determinations, peak areas of the substrate and product were compared to compute the proportion of substrate reacted by the LpxC enzyme at each compound concentration. The fractional activity was converted to percentage inhibition and plotted against compound concentration in ActivityBase™ and fit using a four-parameter logistic using non-linear regression to yield the IC50 value.

P. aeruginosa LpxC = P. aeruginosa LpxC (Pseudomonas aeruginosa (strain ATCC 15692 / DSM 22644 / CIP 104116 / JCM 14847 / LMG 12228 / 1C / PRS 101 / PAO1), UniProt P47205); test: biochemical; type: biochemical; conditions: 5 nM P. aeruginosa LpxC, 2.5 μM substrate, 1 hour at room temperature
Description: as §1
For ADDA™ analysis, an aliquot of assay sample was withdrawn from each well of the 384-well plate and applied to a Hypercarb cartridge (Optimize Technologies, USA) under conditions designed to retain analytes of interest. Analytes were eluted using 1:1:2 acetone:acetonitrile:water containing 5 mM ammonium acetate then analysed by triple-quadrupole mass spectrometry. Mass spectrometry was carried out using electrospray ionization in negative ion mode.
For IC50 determinations, peak areas of the substrate and product were compared to compute the proportion of substrate reacted by the LpxC enzyme at each compound concentration.

[1] = tested on: E. coli BW25113 isogenic mutant deficient in acrA mediated efflux; test: broth microdilution minimum inhibition concentration assay; type: cell-based; conditions: Escherichia coli, BW25113, read-out: E. coli KO MIC
Description: (§2) Exemplary compounds from the above Examples were tested to determine their minimum inhibitory concentration (MIC) for exemplary strains of Eschericia and Pseudomonas bacteria using broth microdilution methods. Assay procedures and results are described below.
(§3) Broth microdilution assays were conducted according to Clinical and Laboratory Standards Institute guidelines (CLSI, M07-A11: Clinical and Laboratory Standards Institute. Methods for Dilution Antimicrobial Susceptibility Tests for Bacteria that Grow Aerobically; Approved Standard—11th Edition. Wayne, PA: CLSI, 2018.). Briefly, a 0.5 McFarland standard suspension was made from bacterial isolates on non-selective, solid media. The inocula were adjusted to give a bacterial concentration of 1×10^6 CFU/mL. Serial doubling-dilutions of each compound were prepared in cation-adjusted Mueller-Hinton broth (Sigma-Aldrich) in 96-well microdilution plates. A 50 μL aliquot of the inoculum was added to each microdilution plate and, within 15 minutes, incubated at 37° C. in air for 16-20 h. […] The test was controlled by the determination of piperacillin MIC against both E. coli ATCC 25922 and P. aeruginosa ATCC 27853 and ensuring accordance with the ranges published in CLSI supplementary document M100 (CLSI, M100Ed29: Clinical and Laboratory Standards Institute. Performance Standards for Antimicrobial Susceptibility Testing, 29th Edition. Wayne, PA: CLSI, 2018.).
(§4) Multiple enterobacteriaceae strains were tested, including E. coli ATCC 25922 and K. pneumoniae ATCC 43816. WT E. coli BW25113 was tested with an isogenic mutant deficient in acrA mediated efflux by clean deletion. WT P. aeruginosa PAO1 was tested with an isogenic mutant deficient in MexA mediated efflux by clean deletion.
(§5) Experimental results are provided in Table 4, which provides MIC values for wild-type E. coli BW25113 (“E. coli WT MIC”), an isogenic mutant deficient in acrA mediated efflux by clean deletion (“E. coli KO MIC”), wild-type P. aeruginosa PAO1 (“P. aeruginosa WT MIC”), and an isogenic mutant deficient in MexA mediated efflux by clean deletion (“[…]”).

[2] = tested on: P. aeruginosa PAO1 isogenic mutant deficient in MexA mediated efflux; test: as above; type: cell-based; conditions: Pseudomonas aeruginosa, PAO1, read-out: P. aeruginosa KO MIC
Description: as §2, §3, §4, §5

[3] = tested on: wild-type E. coli BW25113; test: as above; type: cell-based; conditions: Escherichia coli; wild-type E. coli BW25113, 37° C. 16-20 h; read-out: E. coli WT MIC
Description: as §2, §3, §4, §5

[4] = tested on: wild-type P. aeruginosa PAO1; test: as above; type: cell-based; conditions: Pseudomonas aeruginosa
Description: as §2, §3, §4, §5

[5] = PAO1, read-out: P. aeruginosa WT MIC
[6] = wild-type P. aeruginosa PAO1, 37° C. 16-20 h, read-out: P. aeruginosa WT MIC

With `CC(C)C(=O)N1C[C@H](NC(=O)[C@@H]2C[C@H](O)CN2)C[C@@H]1C(=O)NCc1ccc(C#Cc2ccc(CN3CCOCC3)cc2)cc1` [Example 9T, (2R,4R)-4-((2S,4S)-4-Hydroxypyrrolidine-2-carboxamido)-1-isobutyryl-N-(4-((4-(morpholinomethyl)phenyl)ethynyl)benzyl)pyrrolidine-2-carboxamide] the IC50 (E. coli LpxC) was 2.5 to 10 µM, the IC50 (P. aeruginosa LpxC) was 0.1 to 1 µM and the MIC [1] was > 100 µM. For the same compound, the MIC [2] was > 100 µM, the MIC [3] was > 100 µM and the MIC [4, 5] was > 100 µM.

For `CC(C)C(=O)N1C[C@H](NC(=O)[C@@H]2CC(F)(F)CN2)C[C@@H]1C(=O)NCc1ccc(C#CC#CC2CC2)cc1` [Example 9G], the IC50 (E. coli LpxC) was 0.5 to 2.5 µM, the IC50 (P. aeruginosa LpxC) was 0.05 to 0.1 µM and the MIC [1] was 20 to 100 µM (≈ 10.2 to 51.1 µg/mL). For the same compound, the MIC [2] was 20 to 100 µM (≈ 10.2 to 51.1 µg/mL), the MIC [3] was > 100 µM and the MIC [4, 5] was > 100 µM.

For `CNC(=O)N1C[C@H](NC(=O)[C@@H]2C[C@H](F)CN2)C[C@@H]1C(=O)NCc1ccc(C#Cc2ccc(CN3CCOCC3)cc2)cc1` [Example 9AR], the IC50 (E. coli LpxC) was < 0.5 µM, the IC50 (P. aeruginosa LpxC) was < 0.05 µM and the MIC [1] was 20 to 100 µM (≈ 11.8 to 59.1 µg/mL). For the same compound, the MIC [2] was < 20 µM, the MIC [3] was > 100 µM and the MIC [4, 6] was > 100 µM.

For `CN(C)C(=O)N1C[C@H](NC(=O)[C@@H]2C[C@H](F)CN2)C[C@@H]1C(=O)NCc1ccc(C#Cc2ccc(CN3CCOCC3)cc2)cc1` [Example 9AH], the IC50 (E. coli LpxC) was 0.5 to 2.5 µM, the IC50 (P. aeruginosa LpxC) was < 0.05 µM and the MIC [1] was 20 to 100 µM (≈ 12.1 to 60.5 µg/mL). The MIC [2] was < 20 µM, the MIC [3] was > 100 µM and the MIC [4, 6] was > 100 µM.

With `O=C(O)CCN1C[C@H](NC(=O)[C@@H]2C[C@H](F)CN2)C[C@@H]1C(=O)NCc1ccc(C#CC#CC2CC2)cc1` [Example 9AO] the IC50 (E. coli LpxC) was 2.5 to 10 µM, the IC50 (P. aeruginosa LpxC) was 0.1 to 1 µM and the MIC [1] was > 100 µM. The MIC [2] was > 100 µM, the MIC [3] was > 100 µM and the MIC [4, 5] was > 100 µM.

`COC(=O)N1C[C@H](NC(=O)[C@@H]2C[C@H](F)CN2)C[C@@H]1C(=O)NCc1ccc(C#Cc2ccc(CN3CCOCC3)cc2)cc1` [Example 9AG] was tested, and the IC50 (E. coli LpxC) was < 0.5 µM, the IC50 (P. aeruginosa LpxC) was < 0.05 µM and the MIC [1] was < 20 µM. For the same compound, the MIC [2] was < 20 µM, the MIC [3] was 20 to 100 µM (≈ 11.8 to 59.2 µg/mL) and the MIC [4, 6] was > 100 µM.

With `CC(C)C(=O)N1C[C@H](NC(=O)[C@@H]2C[C@H](F)CN2)C[C@@H]1C(=O)NCc1ccc(C#Cc2ccc(CN3CCOCC3)cc2)cc1` [Example 9D] the IC50 (E. coli LpxC) was < 0.5 µM, the IC50 (P. aeruginosa LpxC) was < 0.05 µM and the MIC [1] was < 20 µM. The MIC [2] was < 20 µM, the MIC [3] was 20 to 100 µM (≈ 12.1 to 60.4 µg/mL) and the MIC [4, 5] was > 100 µM.

For `CC(C)C(=O)N1C[C@H](NC(=O)[C@@H]2C[C@@H](C#N)CN2)C[C@@H]1C(=O)NCc1ccc(C#Cc2ccc(CN3CCOCC3)cc2)cc1` [Example 9AC, (2R,4R)-4-((2S,4R)-4-Cyanopyrrolidine-2-carboxamido)-1-isobutyryl-N-(4-((4-(morpholinomethyl)phenyl)ethynyl)benzyl)pyrrolidine-2-carboxamide], the IC50 (E. coli LpxC) was 0.5 to 2.5 µM, the IC50 (P. aeruginosa LpxC) was < 0.05 µM and the MIC [1] was > 100 µM. The MIC [2] was > 100 µM, the MIC [3] was > 100 µM and the MIC [4, 6] was > 100 µM.

In the case of `CC(C)C(=O)N1C[C@H](NC(=O)[C@@H]2C[C@@H](F)CN2)C[C@@H]1C(=O)NCc1ccc(C#Cc2ccc(CN3CCOCC3)cc2)cc1` [Example 9H], the IC50 (E. coli LpxC) is reported as 2.5 to 10 µM, the IC50 (P. aeruginosa LpxC) is reported as 0.1 to 1 µM and the MIC [1] is reported as > 100 µM. The MIC [2] was > 100 µM, the MIC [3] was > 100 µM and the MIC [4, 5] was > 100 µM.
